{"source": "the supplement of paper PMC10307832", "assay_in_all_cases": "relative viability (nuclei count vs DMSO), 5 days (fraction); higher = more cells survive", "key": {"Venetoclax + Crizotinib": {"compound": "CC1(C)CCC(CN2CCN(c3ccc(C(=O)NS(=O)(=O)c4ccc(NCC5CCOCC5)c([N+](=O)[O-])c4)c(Oc4cnc5[nH]ccc5c4)c3)CC2)=C(c2ccc(Cl)cc2)C1 [Venetoclax] + C[C@@H](Oc1cc(-c2cnn(C3CCNCC3)c2)cnc1N)c1c(Cl)ccc(F)c1Cl [Crizotinib] (partner 1 µM)", "summary_of_the_method": "(§1)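 Lung cancer cell lines were seeded in 1536-well plates and dosed by pin tool the next day, with either a single drug or a fixed anchor-drug dose combined with five library-drug doses (not always all listed) spaced in √10 steps. Five days later, one step fixed the cells and stained their nuclei (final 0.05% Triton X-100, 1% formaldehyde, 1 ug/ml Hoechst), and nuclei were counted on 4× images. Relative viability is the nuclei count in treated wells divided by the count in vehicle wells, and each value is the median of duplicate plates.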"}, "Selumetinib + Trametinib": {"compound": "Cn1cnc2c(F)c(Nc3ccc(Br)cc3Cl)c(C(=O)NOCCO)cc21 [Selumetinib] + CC(=O)Nc1cccc(-n2c(=O)n(C3CC3)c(=O)c3c(Nc4ccc(I)cc4F)n(C)c(=O)c(C)c32)c1 [Trametinib] (partner 0.02 µM)", "summary_of_the_method": "as §1"}, "Selumetinib + Tozasertib": {"compound": "Cn1cnc2c(F)c(Nc3ccc(Br)cc3Cl)c(C(=O)NOCCO)cc21 [Selumetinib] + Cc1cc(Nc2cc(N3CCN(C)CC3)nc(Sc3ccc(NC(=O)C4CC4)cc3)n2)n[nH]1 [Tozasertib] (partner 0.1 µM)", "summary_of_the_method": "as §1"}, "Selumetinib + Decitabine": {"compound": "Cn1cnc2c(F)c(Nc3ccc(Br)cc3Cl)c(C(=O)NOCCO)cc21 [Selumetinib] + Nc1ncn([C@H]2C[C@H](O)[C@@H](CO)O2)c(=O)n1 [Decitabine] (partner 2 µM)", "summary_of_the_method": "as §1"}}}
{"cell line": "UMC-11", "values": [{"measurement": "relative viability", "setting": "Venetoclax + Crizotinib; first compound 0.01 µM", "result": 0.625}, {"measurement": "relative viability", "setting": "Venetoclax + Crizotinib; first compound 0.03162 µM", "result": 0.622}, {"measurement": "relative viability", "setting": "Venetoclax + Crizotinib; first compound 0.1 µM", "result": 0.653}, {"measurement": "relative viability", "setting": "Venetoclax + Crizotinib; first compound 0.3162 µM", "result": 0.636}, {"measurement": "relative viability", "setting": "Venetoclax + Crizotinib; first compound 1 µM", "result": 0.614}, {"measurement": "relative viability", "setting": "Selumetinib + Trametinib; first compound 0.02 µM", "result": 0.562}, {"measurement": "relative viability", "setting": "Selumetinib + Trametinib; first compound 0.06325 µM", "result": 0.703}, {"measurement": "relative viability", "setting": "Selumetinib + Trametinib; first compound 0.2 µM", "result": 0.879}, {"measurement": "relative viability", "setting": "Selumetinib + Trametinib; first compound 0.6325 µM", "result": 0.812}, {"measurement": "relative viability", "setting": "Selumetinib + Tozasertib; first compound 0.02 µM", "result": 0.215}, {"measurement": "relative viability", "setting": "Selumetinib + Tozasertib; first compound 0.06325 µM", "result": 0.203}, {"measurement": "relative viability", "setting": "Selumetinib + Tozasertib; first compound 0.2 µM", "result": 0.205}, {"measurement": "relative viability", "setting": "Selumetinib + Tozasertib; first compound 0.6325 µM", "result": 0.199}, {"measurement": "relative viability", "setting": "Selumetinib + Decitabine; first compound 0.02 µM", "result": 0.653}, {"measurement": "relative viability", "setting": "Selumetinib + Decitabine; first compound 0.06325 µM", "result": 0.624}, {"measurement": "relative viability", "setting": "Selumetinib + Decitabine; first compound 0.2 µM", "result": 0.619}, {"measurement": "relative viability", "setting": "Selumetinib + Decitabine; first compound 0.6325 µM", "result": 0.643}]}
